Inconclusive results are not listed. The source made the active and inactive calls.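 The calls were made as follows: active = Compounds that reduce signal, with fitted half-maximal dose at or under twice the top valid tested dose; inconclusive = Poor fit, or flat curve losing 30 to 70% of signal; inactive = Potency past limit, flat within 30%, or opposite direction.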

A short description of the first assay: viability loss in HEK293T cells – cell-based, ATP luminescence, cherry-pick samples, cytotoxicity control, dose response (AID 687005). Particulars: HEK293T viability, ATP luminescence (CellTiter-Glo), 48 h; at 23.5 µM (top of the series). Background: In ATP-based viability assays light output follows the ATP content of the culture.
For the compound `Cc1noc(C)c1S(=O)(=O)Nc1ccc2c(c1)CC(=O)N([C@@H](C)CO)C[C@@H](C)[C@@H](CN(C)S(=O)(=O)c1cccs1)O2`, the activity change, negative = cytotoxicity is -16.9% (inactive).
Still for that read-out and setting: the figure for `COc1cccc(S(=O)(=O)Nc2ccc3c(c2)[C@H]2C[C@@H](CC(=O)NC4CCCCC4)O[C@@H](CO)[C@H]2O3)c1` is -20.2% (inactive); for `CO[C@H]1CN(C)C(=O)c2cc(NC(C)=O)ccc2OC[C@H](C)N(Cc2cccc(F)c2)C[C@@H]1C` it is -25.3% (inactive); for `CN1c2ccc(Br)cc2[C@@H]2[C@@H](CCN2C(=O)Cc2cccnc2)[C@@H]1CO` it is -13.9% (inactive).

Still in this assay, the particulars now being: HEK293T viability, ATP luminescence (CellTiter-Glo), 48 h; at 26 µM (top of the series).
Regarding `C[C@H]1CN([C@@H](C)CO)C(=O)Cc2cc(NS(=O)(=O)c3ccc(F)cc3)ccc2O[C@H]1CN(C)S(=O)(=O)c1ccc(F)cc1`, the activity change, negative = cytotoxicity was 6.2% (inactive).
Regarding `COc1ccccc1C#Cc1ccc2c(c1)O[C@H](CN(C)C(C)=O)[C@H](C)CN([C@@H](C)CO)S2(=O)=O`, the activity change, negative = cytotoxicity is -7.15% (inactive).
Still for that read-out and setting: the figure for `CCOC(=O)NC(=S)Nc1ccc(C(C)(C)C)cc1Br` is 9.89% (inactive).
Still for that read-out and setting: under `CCCNC(=O)N1C[C@H](O)COC[C@H]2O[C@H](CC(=O)N3CCN(C)CC3)CC[C@@H]21` stands -14.1% (inactive); under `Cc1noc(C)c1S(=O)(=O)N(C)C[C@H]1OCCCC[C@@H](C)Oc2ccc(NC(=O)CCCCCC(=O)Nc3ccccc3N)cc2C(=O)N([C@@H](C)CO)C[C@@H]1C`, -1.73% (inactive); under `COc1ccccc1NC(=O)N[C@@H]1CC[C@@H](CCn2cc(C3(O)CCCC3)nn2)O[C@H]1CO`, 9.21% (inactive).
Still for that read-out and setting: the figure for `Cc1ccc(S(=O)(=O)N2C[C@@H](O)COC[C@@H]3O[C@H](CC(=O)NCc4ccc5c(c4)OCO5)CC[C@H]32)cc1` is 46.9% (inactive).
Turning to `O=C(c1c(Cl)cccc1Cl)N1CCN(c2ccccn2)CC1`, the activity change, negative = cytotoxicity is -3.99% (inactive).
The same measure, in the same setting: the figure for `C[C@H](CO)N1C[C@H](C)[C@H](CN(C)S(=O)(=O)c2cn(C)cn2)Oc2ncc(/C=C/c3ccccc3)cc2C1=O` is 5.3% (inactive); for `COc1ccc(CN(C)C[C@@H]2OCCCC[C@H](C)Oc3ccc(N(C)C)cc3C(=O)N([C@H](C)CO)C[C@@H]2C)cc1` it is 12.7% (inactive).
The same measure, in the same setting: the figure for `COCCNC(=O)C[C@H]1C=C[C@H](NS(=O)(=O)c2ccc(C)cc2)[C@@H](CO)O1` is -8.29% (inactive); for `NC(=O)NCC#Cc1ccc2c(c1)[C@]1(C(=O)N2)[C@H](C(N)=O)[C@H]2C(=O)O[C@H](c3ccccc3)[C@H](c3ccccc3)N2[C@@H]1c1ccccc1OCCO` it is -5.26% (inactive); for `CNC[C@@H]1Oc2c(NS(=O)(=O)c3cccs3)cccc2C(=O)N([C@@H](C)CO)C[C@H]1C` it is 28.1% (inactive).
As for `CC(C)NC(=O)NCC[C@@H]1CC[C@@H](NC(=O)CN(C)C)[C@@H](CO)O1`, the activity change, negative = cytotoxicity was 44.1% (inactive).
On the same count and under the same terms, under `C[C@@H]1CN([C@@H](C)CO)C(=O)c2cc(-c3cncnc3)cnc2O[C@H]1CN(C)C(=O)Cc1ccccc1` stands -0.143% (inactive); under `O=C(C[C@H]1CC[C@H]2[C@@H](COC[C@@H](O)CN2C(=O)Nc2ccc(Cl)cc2)O1)N1CCCCC1`, 25.8% (inactive).
The same measure, in the same setting: under `CC(C)NC(=O)N(C)C[C@H]1OCCCC[C@@H](C)Oc2ccc(NC(=O)c3ccccc3)cc2C(=O)N([C@@H](C)CO)C[C@@H]1C` stands -10.9% (inactive); under `CC(C)NC(=O)Nc1ccc2c(c1)C(=O)N([C@@H](C)CO)C[C@@H](C)[C@H](CN(C)C(=O)Cc1ccccc1)OCCCC[C@@H](C)O2`, 37.8% (inactive); under `Cc1cccc(C)c1NC(=O)C(CCc1ccccc1)N1CCC(c2ccccc2)CC1` (stereo not drawn), -63.1% (inactive).

The values above are taken from PubChem BioAssay AID687005 (Broad Institute, 2013).
